Experimental data: US20030190650A1 (priority 2000, published 2003)

Tested on: primary human neutrophils
Experiment: Gliotoxin block of GM-CSF inhibition of neutrophil apoptosis (MTT)
Assay type: cell-based
Conditions: 0.1 μg/ml with 5 U/ml GM-CSF
Method: Primary human neutrophils are isolated and purified from peripheral blood of normal healthy individuals. Neutrophils are resuspended in serum containing culture medium containing 5 U/ml of GM-CSF at a concentration of 2×10^6/ml. […] After the indicated time, 10 μl of MTT (5 mg/ml) are added to the cultures and incubated for a further 4 h at 37° C. before solubilisation of the purple coloured formazan with acidic isopropanol. Optical densities are read at 570 nm using a plate reader.

SMILES: CS[C@]1(CO)C(=O)N2[C@H]3C(=CC=C[C@@H]3O)C[C@@]2(SC)C(=O)N1C [methylgliotoxin, bis-Dethio-bis (Methylthio) Gliotoxin]
- effect on GM-CSF inhibition of neutrophil apoptosis: blocking effect is not seen
